The target of one series is NEP (Homo sapiens, UniProt P08473). The series is described as follows: In vitro enzyme inhibition assay, human NEP (Assay 1). It counts as biochemical. More on the design: purchased R&D Systems 1182-ZN. To be noted: read-out: human pKi (converted). As to the method: (§1) The inhibitory activities at human and rat neprilysin (EC 3.4.24.11; NEP) were determined using in vitro assays as described below.
Recombinant human NEP was obtained commercially (R&D Systems, Minneapolis, Minn., catalog number 1182-ZN). The fluorogenic peptide substrate Mca-D-Arg-Arg-Leu-Dap-(Dnp)-OH (Medeiros et al. (1997) Braz. J. Med. Biol. Res. 30:1157-62; Anaspec, San Jose, Calif.) was used.
(§2) The assays were performed in 384-well white opaque plates at 37° C. using the fluorogenic peptide substrate at a concentration of 10 μM in Assay Buffer (50 mM HEPES, pH 7.5, 100 mM NaCl, 0.01% polyethylene glycol sorbitan monolaurate (Tween-20), 10 μM ZnSO4).
(§3) Test compounds were assayed over the range of concentrations from 10 μM to 20 pM. Test compounds were added to the enzyme and incubated for 30 minute at 37° C. prior to initiating the reaction by the addition of substrate. Reactions were terminated after 20 minutes of incubation at 37° C. by the addition of glacial acetic acid to a final concentration of 3.6% (v/v).
(§4) Plates were read on a fluorometer with excitation and emission wavelengths set to 320 nm and 405 nm, respectively. Inhibition constants were obtained by nonlinear regression of the data using the equation (GraphPad Software, Inc., San Diego, Calif.): v=v0/[1+(I/K′)] where v is the reaction rate, v0 is the uninhibited reaction rate, I is the inhibitor concentration and K′ is the apparent inhibition constant.

A short description of series [1]: IV/PO pharmacokinetic study in dogs (Assay 3). It counts as in vivo. Particulars: male, beagle, plasma, dog, read-out: AUClast Mean. As to the method: (§5) Each rat or dog pharmacokinetic study began with formulation of the test compound. Appropriate masses of each test compound were added into a volume of vehicle (e.g. 5% sodium bicarbonate, 5% dextrose in water) such that the final concentration of each compound was appropriate to be dosed at 2 mL/kg. Although a homogenous suspension were acceptable for oral dosing, intravenous dosing solutions were sterile-filtered (0.2 μm) prior to dosing to ensure no particulates were administered.
In the dog study, male beagle dogs (3 per route) housed at Agilux Laboratories (Worcester, Mass.) and weighing between 7-12 kg received either a single oral gavage or a single intravenous (via indwelling catheter) dose of the dosing solution. The final dose was typically 0.1-2 mg/kg. Serial blood samples were harvested via direct venipuncture at 3 minutes, 15 minutes, 30 minutes, 1 hour, 2 hours, 4 hours, 6 hours, 8 hours, 12 hours, and 24 hours post-dose. All samples were collected manually into microtainer tubes containing sodium fluoride, potassium oxalate and paraoxon, and were processed to plasma by refrigerated centrifugation.
(§6) Plasma samples were extracted with 3 volumes of MeCN containing a suitable internal standard. Extracts were reconstituted into 3 volumes of water containing 1% formic acid, and analyzed via HPLC-coupled MS/MS. Plasma concentration-time data were analyzed using the Phoenix software (Pharsight Corp., St. Louis, Mo.) to calculate pharmacokinetic parameters.

Series [2] in a line: IV/PO pharmacokinetic study in rats (Assay 3). It counts as in vivo. Particulars: male, Sprague-Dawley, plasma, rat, read-out: AUClast Mean. Here is the method:
as §5
In the rat study, pre-cannulated male Sprague-Dawley rats (3 per route) between 8 and 10 weeks of age were obtained from Harlan Laboratories (Indianapolis, Ind.). Rats received either a single oral gavage or a single intravenous (via lateral tail vein) dose of the dosing solution. The final dose was typically 0.5-3 mg/kg. Serial blood samples were harvested via the cannula implanted in the jugular vein at 3 minutes, 15 minutes, 30 minutes, 1 hour, 2 hours, 4 hours, 6 hours, and 24 hours post-dose. Sampling was performed either manually or using automated blood samplers. Samples were collected into microtainer tubes containing sodium fluoride, potassium oxalate and paraoxon, and were processed to plasma by refrigerated centrifugation.
as §6

The target in a further series is T1, Rat NEP (Rattus norvegicus, UniProt P07861).
T1 construct: leaving a viscous oily precipitate containing the enriched membrane fraction; from tissue; host or cells: kidneys of adult Sprague Dawley rats (Triton X-114 enriched membrane fraction)
T1 sequence (P07861 1-750): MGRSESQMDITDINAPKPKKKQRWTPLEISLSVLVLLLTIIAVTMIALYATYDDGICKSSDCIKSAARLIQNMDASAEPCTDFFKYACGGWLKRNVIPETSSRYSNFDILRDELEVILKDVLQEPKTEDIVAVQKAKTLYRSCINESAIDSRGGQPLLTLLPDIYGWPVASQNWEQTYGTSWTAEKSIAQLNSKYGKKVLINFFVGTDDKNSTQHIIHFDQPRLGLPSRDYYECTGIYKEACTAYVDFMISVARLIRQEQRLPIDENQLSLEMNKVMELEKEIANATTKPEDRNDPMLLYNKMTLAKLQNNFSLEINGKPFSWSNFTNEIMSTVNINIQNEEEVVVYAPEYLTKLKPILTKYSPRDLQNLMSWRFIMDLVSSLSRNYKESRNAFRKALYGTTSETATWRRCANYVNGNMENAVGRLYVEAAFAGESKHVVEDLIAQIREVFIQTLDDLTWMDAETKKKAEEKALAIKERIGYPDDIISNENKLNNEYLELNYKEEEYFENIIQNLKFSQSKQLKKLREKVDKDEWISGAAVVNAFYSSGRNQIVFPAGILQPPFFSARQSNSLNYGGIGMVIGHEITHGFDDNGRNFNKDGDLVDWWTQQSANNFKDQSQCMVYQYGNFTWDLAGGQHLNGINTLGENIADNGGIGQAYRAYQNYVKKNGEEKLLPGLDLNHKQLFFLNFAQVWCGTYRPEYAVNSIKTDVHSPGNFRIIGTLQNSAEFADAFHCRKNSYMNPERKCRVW
Briefly: In vitro enzyme inhibition assay, rat NEP (Assay 1). It counts as biochemical. Particulars: NEP from rat kidneys; read-out: rat pKi (converted). As to the method:
as §1
Rat NEP was prepared from the kidneys of adult Sprague Dawley rats. Whole kidneys were washed in cold phosphate buffered saline (PBS) and brought up in ice-cold lysis buffer (1% Triton X-114, 150 mM NaCl, 50 mM tris(hydroxymethyl) aminomethane (Tris) pH 7.5; Bordier (1981) J. Biol. Chem. 256: 1604-1607) in a ratio of 5 mL of buffer for every gram of kidney. Samples were homogenized on ice using a polytron hand held tissue grinder. Homogenates were centrifuged at 1000×g in a swinging bucket rotor for 5 minutes at 3° C. The pellet was resuspended in 20 mL of ice cold lysis buffer and incubated on ice for 30 minutes. Samples (15-20 mL) were then layered onto 25 mL of ice-cold cushion buffer (6% w/v sucrose, 50 mM pH 7.5 Tris, 150 mM NaCl, 0.06%, Triton X-114), heated to 37° C. for 3-5 minutes and centrifuged at 1000×g in a swinging bucket rotor at room temperature for 3 minutes. The two upper layers were aspirated off, leaving a viscous oily precipitate containing the enriched membrane fraction. Glycerol was added to a concentration of 50% and samples were stored at −20° C. Protein concentrations were quantitated using a BCA detection system with bovine serum albumin (BSA) as a standard.
as §2, §3, §4

A short description of series [3]: Accelerated stability study of calcium salt crystals (Example 7). It counts as physicochemical. The source says: One challenge in pharmaceutical drug development relates to discovering a stable, crystalline form of a drug having a reasonably high melting point. The challenge of the present invention was that crystals of the free acid of Compound 1 could not be obtained. Furthermore, many crystal screens failed, with the exception of two-arginine and calcium crystals of (2S,4R)-5-(5′-chloro-2′-fluorobiphenyl-4-yl)-4-(ethoxyoxalylamino)-2-hydroxymethyl-2-methylpentanoic acid were obtained. However, the arginine crystals (see Example 1) were deliquescent at ambient conditions and were difficult to develop further. On the other hand, the calcium crystals were stable and melted around 239° C. For that reason, an accelerated stability study of Compound 1′ was conducted at the temperatures and % relative humidity (RH) reported below.

Series [4] is described as follows: Dynamic moisture sorption assessment. It counts as physicochemical. As to the method:
In one embodiment, crystalline form 1′ is characterized by the DMS isotherm in FIG. 4. This form is a non-hygroscopic solid. The total moisture gain observed is less than 1% by weight when exposed to between 5% and 90% relative humidity. No significant hysteresis is found between consecutive sorption-desorption cycles.
DMS measurements were performed using a VTI atmospheric microbalance, SGA-100 system (VTI Corp., Hialeah, Fla. 33016). A weighed sample was used and the humidity was lowest possible value (close to 0% relative humidity) at the start of the analysis. The DMS analysis consisted of a scan rate of 5% relative humidity/step over the full humidity range of 5-90%. The DMS run was performed isothermally at 25° C.

Where [5] appears, read: PO, analyte = compound dosed (prodrug).
Setting [6] is: IV, analyte = compound dosed (active metabolite).

Chain of NEP (P08473 52-750 limits assumed): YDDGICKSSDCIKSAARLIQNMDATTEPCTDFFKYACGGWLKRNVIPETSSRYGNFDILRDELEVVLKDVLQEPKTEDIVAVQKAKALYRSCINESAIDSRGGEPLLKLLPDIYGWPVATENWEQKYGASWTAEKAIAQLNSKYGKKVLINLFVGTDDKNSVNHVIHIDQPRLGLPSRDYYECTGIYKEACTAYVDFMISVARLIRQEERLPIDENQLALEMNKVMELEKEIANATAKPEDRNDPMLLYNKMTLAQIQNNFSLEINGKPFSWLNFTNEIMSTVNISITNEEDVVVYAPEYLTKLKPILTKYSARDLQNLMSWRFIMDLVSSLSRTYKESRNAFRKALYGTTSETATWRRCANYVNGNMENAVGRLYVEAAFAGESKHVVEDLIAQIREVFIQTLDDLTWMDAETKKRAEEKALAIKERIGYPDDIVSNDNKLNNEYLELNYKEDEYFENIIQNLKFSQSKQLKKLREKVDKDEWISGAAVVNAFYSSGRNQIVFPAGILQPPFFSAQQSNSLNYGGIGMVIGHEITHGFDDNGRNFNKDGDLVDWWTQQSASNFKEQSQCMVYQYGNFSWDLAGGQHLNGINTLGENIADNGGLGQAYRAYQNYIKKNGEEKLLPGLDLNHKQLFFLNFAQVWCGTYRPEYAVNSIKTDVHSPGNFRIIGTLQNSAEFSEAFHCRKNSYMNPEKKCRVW

`CCOC(=O)[C@H](O)C[C@@H](Cc1ccc(-c2cc(Cl)ccc2F)cc1)NC(=O)C(=O)O` [Comparison Compound C4, (2R,4R)-5-(5′-Chloro-2′-fluorobiphenyl-4-yl)-2-hydroxy-4-(oxalylamino)pentanoic Acid Ethyl Ester]: the Ki was 15.8 nM at NEP and 7.94 nM on Rat NEP. The AUC(0-t) came out at 480 ng·h/mL in series [1] (setting [5]) and 40 ng·h/mL in series [2] (setting [5]).

As to `CCOC(=O)C(=O)N[C@H](Cc1ccc(-c2cc(Cl)ccc2F)cc1)C[C@@H](O)C(=O)O` [Comparison Compound C5, (2R,4R)-5-(5′-Chloro-T-fluorobiphenyl-4-yl)-4-(ethoxyoxalylamino)-2-hydroxypentanoic Acid], the Ki at NEP and on Rat NEP was 0.2 nM in each case. Besides, the AUC(0-t) in series [1] (setting [5]) was found to be 29 ng·h/mL.

On to `O=C(O)C(=O)N[C@H](Cc1ccc(-c2cc(Cl)ccc2F)cc1)C[C@@H](O)C(=O)O` [Comparison Compound C6, (2R,4R)-5-(5′-Chloro-T-fluorobiphenyl-4-yl)-2-hydroxy-4-(oxalylamino)pentanoic Acid], for which the figures for the Ki on NEP and on Rat NEP were 0.2 nM and 0.158 nM, respectively. The AUC(0-t) in series [1] (setting [6]) is 1280 ng·h/mL; in series [2] (setting [6]), 15000 ng·h/mL.

As for `CCOC(=O)[C@](C)(CO)C[C@@H](Cc1ccc(-c2cc(Cl)ccc2F)cc1)NC(=O)C(=O)O` [Comparison Compound C3, (2S,4R)-5-(5′-Chloro-2′-fluorobiphenyl-4-yl)-2-hydroxymethyl-2-methyl-4-(oxalylamino)pentanoic Acid Ethyl Ester], the values for the Ki at NEP and at Rat NEP were 3980 nM and 2000 nM, respectively. Further, the results for the AUC(0-t) in series [1] (setting [5]) and in series [2] (setting [5]) were 950 ng·h/mL and 560 ng·h/mL, respectively.

Take `CCOC(=O)C(=O)N[C@H](Cc1ccc(-c2cc(Cl)ccc2F)cc1)C[C@@](C)(CO)C(=O)O` [Compound 1′, Calcium (2S,4R)-5-(5′-Chloro-2′-fluoro-[1,1′-biphenyl]-4-yl)-4-(2-ethoxy-2-oxoacetamido)-2-(hydroxymethyl)-2-methylpentanoate]: the Assay is reported as 95.0 % (w/w) in series [3] (5° C., 0 months); 93.4 % (w/w) in series [3] (5° C., 2 months); 92.4 % (w/w) in series [3] (5° C., 3 months); 95.0 % (w/w) in series [3] (25° C., 60% RH, 0 months); 94.4 % (w/w) in series [3] (25° C., 60% RH, 2 months); 92.9 % (w/w) in series [3] (25° C., 60% RH, 3 months). In addition, the Assay is on record as 95.0 % (w/w) in series [3] (40° C., 75% RH, 0 months); 95.5 % (w/w) in series [3] (40° C., 75% RH, 1 month); 92.1 % (w/w) in series [3] (40° C., 75% RH, 2 months); 92.1 % (w/w) in series [3] (40° C., 75% RH, 3 months). Moreover, the Purity was 97.3 % (a/a) in series [3] (5° C., 0 months); 97.6 % (a/a) in series [3] (5° C., 2 months); 97.5 % (a/a) in series [3] (5° C., 3 months); 97.3 % (a/a) in series [3] (25° C., 60% RH, 0 months); 97.3 % (a/a) in series [3] (25° C., 60% RH, 2 months); 96.8 % (a/a) in series [3] (25° C., 60% RH, 3 months). For the same compound, the Purity in series [3] (40° C., 75% RH, 0 months) is 97.3 % (a/a); in series [3] (40° C., 75% RH, 1 month) it was 95.9 % (a/a); in series [3] (40° C., 75% RH, 2 months), 95.3 % (a/a); in series [3] (40° C., 75% RH, 3 months), 93.9 % (a/a). The “stability (in words)” value in series [3] (up to at least three months at the temperatures and relative humidity tested) is given as “relatively stable”. The “hygroscopicity (in words)” value in series [4] (DMS isotherm) is “non-hygroscopic”. For the same compound, in series [4] (between 5% and 90% relative humidity, 25° C.), the total moisture gain result is recorded as “less than 1 % by weight”.

(Values after US9868698B2, “(2S,4R)-5-(5′-chloro-2′-fluorobiphenyl-4-yl)-4-(ethoxyoxalylamino)-2-hydroxymethyl-2-methylpentanoic acid” (THERAVANCE BIOPHARMA R&D IP, LLC, priority 2015, dated 2018).)
